“And” between values parts separate entries of the source, which are not always exact repeats. Equal entries are not always repeated. Where two headings read alike, the source gives them in different places. Ends that are not written are not given here.
Tests used:
COS-1 cells (Mock) = assay: Saturation analysis of 125I-VEGF165 binding, COS-1 Mock; conditions: COS-1 transient
From the text: To perform hNeuropilin-1 (hNP-1) and hVEGFR-2 complex formation and peptide blocking experiments, the hVEGFR-2 and hNP-1 cDNAs are cloned into the pJFE14 mammalian expression plasmid (Regeneron Pharmaceuticals) containing the SRα promoter. COS-1 cells are transiently transfected with pJFE14 (Regeneron Pharmaceuticals), hVEGFR-2 (Regeneron Pharmaceuticals), or hNP-1 (Procter & Gamble Pharmaceuticals) expression plasmids using the Lipofectamine-2000 system (Gibco-BRL). […] When co-expressing VEGFR-2 and NP-1, 5 μg of VEGFR-2 cDNA and 2 μg of NP-1 cDNA are used. When the receptors are expressed in isolation, for VEGFR-2, 5 μg of VEGFR-2 cDNA and 2 μg of mock vector cDNA are used.
Unbound ligand is then removed by quickly washing three times with 5 ml ice cold BSA-free binding buffer (MEM, Gibco, 25 mM Hepes, Gibco). Cells are lysed by the addition of 250 μl of RIPS Buffer (previously described), and the lysed cells are transferred to 12×75 mm test tubes and counted using a gamma counter. Generation of competition curves and IC50 values are performed using the Prism software package (Graphpad Software Inc., San Diego, Calif.). […]
This possibility was evaluated by determining equilibrium binding Kd values in cells expressing VEGFR-2 alone, NP-1 alone, and cells co-expressing both receptors, using standard saturation analysis techniques as known to one skilled in the art.

[1] = tested on: VEGF165 vascular growth response; assay: Mouse corneal pocket model; type: in vivo; design: key to Score #1 (subjective neovascular response score) / Score #2 (subjective neovascular response score) / Score #3 (subjective neovascular response score): subjective neovascular growth score, 0 to 6 scale; conditions: per animal, scale 0 to 6, pellet P6V8 4 μg and/or VEGF165 300 ng
Method: A 0.2 μl aliquot of this solution yielded a 4 μg dose. Human recombinant VEGF165 was purchased from R&D Systems (Minneapolis, Minn.), supplied in a lyophilized, carrier free form and reconstituted in the same water as the above peptide. A 0.2 μl aliquot of this solution yielded a 300 ng dose.
Male albino mice (Crl: CD-I (ICR) BR, VAF) from Charles River (Portage, N.C.), 20–24 grams were used. […] Compound adsorbed pellets were fabricated and implanted as described below. The treated eye was imaged on the day of implantation (day 0) and on days 4 and 7 following surgery. The growth response was subjectively graded on a scale from 0 to 6 by three independent graders blinded from the treatment grouping labels using the 3× printed image.
Polyvinyl alcohol (PVA) matrix material (Rippey, El Dorado Hills, Calif.) was cut into 1 cm×3 cm pieces and placed in a vibratome for sectioning on edge to produce 300 μm thick strips. The strips were individually sterilized by exposure to ethylene oxide. A strip was then cut under a dissecting microscope into approximately 300 μm cubes. The desired concentration of test compound or vehicle was adsorbed, sometimes utilizing a micro dessicant chamber. An HP auto sampler micro-syringe (Hamilton, P/N 7000.5) controlled the exact volume of the agent adsorbed onto the sponge. The sponge was then placed on a microscope slide prepared with a coating (20 μl spread over a 0.75 mm×1.5 mm area) of 12% hydron (Sigma, St. Louis, Mo.). The slide was protected in a clean petri dish and placed into a dessicator at 4° C. for a few hours or overnight. The dry, adsorbed sponges were mechanically flattened and overlaid with another aliquot of 12% hydron and again placed into a dessicator to cure the hydron coating. Fabrication of the adsorbed PVA sponge-hydron sandwich (referred to as a pellet) was done no more than 48 hours prior to implantation and the pellets were stored at 4° C. On the day of surgery and just prior to implantation, the pellet was trimmed so that the sponge remained encased by hydron (approximately 400 μm×400 μm×50 μm) and could be carefully removed from the slide.
Mice were anesthetized with 0.05 cc of Ketamine (140 mg/kg) and 0.03 cc Xylazine (17 mg/kg). A surgical plane of anesthesia was maintained by subsequent administration of half doses of the above compounds as needed. The whiskers on the animal's right side were trimmed down to ¼ of an inch. The right eye was bathed in an ophthalmic local anesthetic solution (Ophthaine, 0.5% tetracine hydrochloride) initially and throughout the procedure. The animal was placed on its side and the skin around the eye was gently retracted to expose the lateral and apical aspects of the cornea. The lateral limbic artery bifurcation was positioned horizontally. While stabilizing the eye against the ocular orbit, a vertical incision was made using a micro scalpel into the corneal tissue just lateral to the pupil. Care was taken to prevent accidental perforation of the anterior eye chamber. The incision depth was carefully deepened until a delicate and small lateral stab could be made (on axis with the lateral limbic artery bifurcation) with the micro scalpel into the middle of the corneal stroma. This lateral, intrastromal incision was enlarged by blunt dissection with very fine forceps until a pocket was formed from the vertical incision toward the limbus.
A hydron coated PVA sponge with adsorbed test compound (pellet) was prepared for implantation by carefully excising and removing it from the microscope slide. The pellet was introduced gently into the corneal pocket and advanced to within 1–2 mm of the limbus. The edges of the vertical corneal incision were approximated to encourage rapid healing. The imaging procedure (described below) was used to document the native limbic vascular architecture at the time of implantation. Post surgical recovery of the animal consisted of triple antibiotic ophthalmic ointment to prevent corneal drying, abrasion and infection. […]

[2] = tested on: Balb/c cells (Mock, endogenous NP-1); assay: Saturation analysis of 125I-VEGF165 binding, Balb/c Mock (pGBMGH); conditions: Balb/c stable
From the text: Pools of infected Balb/C 3T3 A31 cells expressing hVEGFR-2 or GFP alone (Mock) are selected two times by FACS sorting using the hVEGFR-2 specific monoclonal antibody J5F4A2 (Procter & Gamble Pharmaceuticals as described in J. Biol. Chem. 276(27):25520–25531 (2001), which is expressly incorporated by reference herein in its entirety, for the VEGFR-2 cells, or by GFP emission for the Mock cells. Clonal populations of VEGFR-2 are generated by subjecting the FACS sorted VEGFR-2 cell pool to limiting dilution. A clonal hVEGFR-2 cell line termed D7R2 is selected for experimental studies based on its high levels of hVEGFR-2 expression by Western blot analysis. The pool of the Mock GFP expressing cells, hereinafter referred to as pGBMGH, is not subjected to limiting dilutions and thus is not a clonal population.
(§1) Unbound ligand is then removed by quickly washing three times with 5 ml ice cold BSA-free binding buffer (MEM, Gibco, 25 mM Hepes, Gibco). Cells are lysed by the addition of 250 μl of RIPS Buffer (previously described), and the lysed cells are transferred to 12×75 mm test tubes and counted using a gamma counter. […]
This possibility was evaluated by determining equilibrium binding Kd values in cells expressing VEGFR-2 alone, NP-1 alone, and cells co-expressing both receptors, using standard saturation analysis techniques as known to one skilled in the art. […]

VEGFR-2/NP-1 [3] = assay: Whole cell binding assay: competition for 125I-VEGF165 in stable Balb/C 3T3 A31 cells overexpressing VEGFR-2 and NP-1; design: species or system human
Method: (§2) Balb/C 3T3 A31 VEGFR-2, NP-1, and VEGFR-2/NP1 stable cells are created using the Nolan Lab Phoenix Retroviral system, previously described.
(§3) Virus containing the hNP-1 gene is generated according to the procedure outlined previously using the QMXE cells.
(§4) Clonal cell lines are obtained by subjecting the NP-1 infected cells to neomycin selection using Balb/C growth medium containing 1.5–2.0 mg/ml G418 (Gibco-BRL) for two weeks. Single colonies are obtained and clones are subjected to Western blot analysis to confirm stable expression of NP-1.
(§5) Cells are plated the day before experimentation at 200,000 cells per well in twelve well tissue culture plates (VWR) in 1 ml of growth medium specific for each cell type. On the day of experimentation, the cells were pre-equilibrated at 4° C. for 30 to 60 minutes in binding buffer (0.2% BSA, Sigma; 25 mM Hepes, Gibco; MEM, Gibco). […] The binding reaction is allowed to reach equilibrium for four hours at 4° C. with gentle agitation.
as §1

NP-1 [4] = biological target: T1, NP-1 (Homo sapiens, UniProt O14786); type: binding; design: the NP-1 cDNA used for these experiments would only produce the full-length receptor; expressed in transfected cells; host or cells: COS-1
Method: (§6) When co-expressing VEGFR-2 and NP-1, 5 μg of VEGFR-2 cDNA and 2 μg of NP-1 cDNA are used. When the receptors are expressed in isolation, for VEGFR-2, 5 μg of VEGFR-2 cDNA and 2 μg of mock vector cDNA are used.
(§7) After generation of the liposome/DNA solution, the cells are rinsed one time with 5 ml Optimem I, then replaced with another 5 ml of Optimem I containing the liposome/DNA solution. The cells are incubated for two to four hours at 37° C., 5% CO2, then 5 ml of COS-1 cell growth medium is applied and the transfection is allowed to proceed overnight. The following day, cells are trypsinized (0.2% trypsin, 1 mM EDTA, Gibco-BRL), and cells containing common transfectants are pooled. […] The cells are then used for corresponding VEGFR-2/NP-1 complex formation and peptide blocking studies.
as §5
(§8) Unbound ligand is then removed by quickly washing three times with 5 ml ice cold BSA-free binding buffer (MEM, Gibco, 25 mM Hepes, Gibco). Cells are lysed by the addition of 250 μl of RIPS Buffer (previously described), and the lysed cells are transferred to 12×75 mm test tubes and counted using a gamma counter. Generation of competition curves and IC50 values are performed using the Prism software package (Graphpad Software Inc., San Diego, Calif.).

VEGFR-2/NP-1 [5] = tested on: T2, VEGFR-2/NP-1; type: binding, human
T2 construct: In the COS-1 cells overexpressing the full-length VEGFR-2; the NP-1 cDNA used for these experiments would only produce the full-length receptor; expressed in transfected cells; host or cells: COS-1
Method: as §6, §7, §5, §8

NP-1 [6] = biological target: T1, NP-1; assay: Whole cell binding assay: competition for 125I-VEGF165 in stable Balb/C 3T3 A31 cells overexpressing NP-1; conditions: for IC50: Balb/C 3T3 A31 cells, competition for 125I-VEGF165; for Relative affinity (IC50 peptide / IC50 VEGF165), NP-1: Stable Balb/c cells
Method: as §2, §3, §4, §5, §8

VEGFR-2 = biological target: T3, VEGFR-2 (Homo sapiens, UniProt P35968); type: binding
T3 construct: In the COS-1 cells overexpressing the full-length VEGFR-2; expressed in transfected cells; host or cells: COS-1
Method: as §6, §7
Cells are plated the day before experimentation at 200,000 cells per well in twelve well tissue culture plates (VWR) in 1 ml of growth medium specific for each cell type. […]
as §1

T1 sequence (O14786 22-923): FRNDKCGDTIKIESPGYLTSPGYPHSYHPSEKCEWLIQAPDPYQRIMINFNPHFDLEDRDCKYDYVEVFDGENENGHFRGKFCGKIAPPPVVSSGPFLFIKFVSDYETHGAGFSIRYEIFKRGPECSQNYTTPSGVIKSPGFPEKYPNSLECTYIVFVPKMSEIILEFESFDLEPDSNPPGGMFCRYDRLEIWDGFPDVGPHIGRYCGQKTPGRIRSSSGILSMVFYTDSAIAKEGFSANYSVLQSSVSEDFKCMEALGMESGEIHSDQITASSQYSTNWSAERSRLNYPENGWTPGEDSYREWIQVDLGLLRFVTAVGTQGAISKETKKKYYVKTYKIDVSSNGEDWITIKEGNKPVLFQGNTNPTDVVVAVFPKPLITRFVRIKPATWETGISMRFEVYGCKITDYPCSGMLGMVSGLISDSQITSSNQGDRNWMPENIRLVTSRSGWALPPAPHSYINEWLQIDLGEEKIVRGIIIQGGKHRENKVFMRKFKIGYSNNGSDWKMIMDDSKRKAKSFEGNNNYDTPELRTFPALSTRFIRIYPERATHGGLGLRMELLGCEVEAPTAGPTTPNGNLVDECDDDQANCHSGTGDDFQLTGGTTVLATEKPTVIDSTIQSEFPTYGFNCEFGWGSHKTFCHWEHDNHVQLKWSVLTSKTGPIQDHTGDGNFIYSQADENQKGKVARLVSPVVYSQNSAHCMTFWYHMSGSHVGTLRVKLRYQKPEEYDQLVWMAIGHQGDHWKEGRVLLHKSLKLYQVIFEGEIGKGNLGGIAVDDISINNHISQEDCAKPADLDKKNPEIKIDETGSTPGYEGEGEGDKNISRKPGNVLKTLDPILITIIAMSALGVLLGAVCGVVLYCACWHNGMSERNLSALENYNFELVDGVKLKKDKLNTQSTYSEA
T3 sequence (P35968 20-1356): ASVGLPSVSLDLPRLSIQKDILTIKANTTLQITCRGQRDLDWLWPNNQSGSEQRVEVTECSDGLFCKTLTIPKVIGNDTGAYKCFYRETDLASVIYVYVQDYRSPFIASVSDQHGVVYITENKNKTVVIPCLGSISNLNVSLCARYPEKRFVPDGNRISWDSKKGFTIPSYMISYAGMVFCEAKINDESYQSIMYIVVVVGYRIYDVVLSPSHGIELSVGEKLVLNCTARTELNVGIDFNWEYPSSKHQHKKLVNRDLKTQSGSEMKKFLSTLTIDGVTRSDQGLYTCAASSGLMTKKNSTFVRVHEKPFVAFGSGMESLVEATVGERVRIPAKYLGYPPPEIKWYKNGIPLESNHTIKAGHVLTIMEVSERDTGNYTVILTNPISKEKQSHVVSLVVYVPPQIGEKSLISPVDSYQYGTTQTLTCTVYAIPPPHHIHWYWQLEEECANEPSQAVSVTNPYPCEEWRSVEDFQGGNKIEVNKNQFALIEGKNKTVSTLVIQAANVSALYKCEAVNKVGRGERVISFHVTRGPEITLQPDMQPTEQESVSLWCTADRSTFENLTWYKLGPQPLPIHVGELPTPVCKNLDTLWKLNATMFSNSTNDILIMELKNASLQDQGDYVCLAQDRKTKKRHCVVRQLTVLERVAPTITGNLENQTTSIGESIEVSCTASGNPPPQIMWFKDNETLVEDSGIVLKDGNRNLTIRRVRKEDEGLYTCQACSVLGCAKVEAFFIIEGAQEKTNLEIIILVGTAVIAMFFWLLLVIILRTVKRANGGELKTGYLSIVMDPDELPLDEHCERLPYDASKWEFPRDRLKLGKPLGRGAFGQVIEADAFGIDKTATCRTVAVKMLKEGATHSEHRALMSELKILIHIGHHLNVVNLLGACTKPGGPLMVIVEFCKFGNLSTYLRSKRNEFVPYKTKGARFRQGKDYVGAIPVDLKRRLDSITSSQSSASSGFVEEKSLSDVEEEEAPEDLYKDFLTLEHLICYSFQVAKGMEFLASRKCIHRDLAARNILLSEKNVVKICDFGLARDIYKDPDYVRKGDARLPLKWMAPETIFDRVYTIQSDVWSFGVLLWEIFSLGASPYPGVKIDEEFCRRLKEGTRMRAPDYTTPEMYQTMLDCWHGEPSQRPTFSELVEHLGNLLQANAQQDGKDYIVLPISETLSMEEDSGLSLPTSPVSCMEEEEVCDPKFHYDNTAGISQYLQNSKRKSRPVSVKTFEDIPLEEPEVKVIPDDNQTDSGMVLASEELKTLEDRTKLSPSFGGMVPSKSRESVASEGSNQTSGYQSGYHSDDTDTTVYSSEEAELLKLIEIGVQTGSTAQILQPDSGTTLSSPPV

## VEGF165: human recombinant VEGF165 (R&D Systems), vascular endothelial growth factor isoform 165
COS-1 cells (Mock)
  Kd: 1.11 nM
  Log Kd ± SEM: −8.95 ± 0.31
[1]; grader 1
  Score #1 (subjective neovascular response score): 2 (2×) and 3 (3×) and 4 (2×) and 5
[1]; grader 2
  Score #2 (subjective neovascular response score): 2 (3×) and 4 (4×) and 5
[1]; grader 3
  Score #3 (subjective neovascular response score): 2 (3×) and 3 (2×) and 4 and 5 (2×)
[2]
  Kd: 0.222 nM
  Log Kd ± SEM: −9.65 ± 0.13

## RRPKGRGKRRREAAAPSDKPRR [AS-4]
VEGFR-2/NP-1 [3]
  Relative affinity (IC50 peptide / IC50 VEGF165), VEGFR-2/NP-1: 3,856
NP-1 [4]
  Relative Affinity to Lead Peptide (RALP), NP-1: 0.45
NP-1 [4]; COS-1
  selectivity for cells expressing NP-1 alone versus cells co-expressing VEGFR-2 and NP-1: about 100 fold
VEGFR-2/NP-1 [5]
  Relative Affinity to Lead Peptide (RALP), VEGFR-2/NP-1: 4.2
NP-1 [6]
  IC50: 17.8 nM
  Relative affinity (IC50 peptide / IC50 VEGF165), NP-1: 112

## H-RRPKGRGKRAAAKQRPSDKPRR-OH [AS-3, RRP KGR GKR AAA KQR PSD KPR R]
NP-1 [4]
  Relative Affinity to Lead Peptide (RALP), NP-1: 0.55
VEGFR-2/NP-1 [5]; AS series, lead peptide P6V8CS, COS-1, NC = no competition
  Relative Affinity to Lead Peptide (RALP), VEGFR-2/NP-1: complete loss of binding
VEGFR-2
  Relative Affinity to Lead Peptide (RALP), VEGFR-2: 4

## KGRGKRRREKQRPCDKPRR [Peptide P6V8-3N, KGR GKR RRE KQR P CDK PRR]
VEGFR-2/NP-1 [3]
  Relative affinity (IC50 peptide / IC50 VEGF165), VEGFR-2/NP-1: 6,928
NP-1 [6]
  IC50: 254 nM
  Relative affinity (IC50 peptide / IC50 VEGF165), NP-1: 1,607

## H-RRPKGRGKRRREKQRAAAKPRR-OH [AS-4A]
NP-1 [4]
  Relative Affinity to Lead Peptide (RALP), NP-1: 2.1
VEGFR-2/NP-1 [5]
  Relative Affinity to Lead Peptide (RALP), VEGFR-2/NP-1: 0.78
VEGFR-2
  Relative Affinity to Lead Peptide (RALP), VEGFR-2: 1.9
